From US20080064730A1, “Azine Compounds for Combating Animal Pests” (BASF Aktiengesellschaft, priority 2004, published 2008) come the findings set out here.

Each structure is given as a SMILES string.

Assay type in all cases: in vivo
Assay [1] deals with Green Peach Aphid (Myzus Persicae). The assay can be described thus: Green peach aphid test on dipped pepper plants. As to conditions: 120 h, pepper plant leaves dipped, after 5 days, read-out: mortality in comparison with untreated controls. As to the method:
• The soybean bean cyst nematode culture was maintained in a greenhouse and soybean eggs and J2 larvae were obtained for testing by dislodging soybean cysts from the roots with a sieve. The cysts were broken to release the eggs and the eggs were maintained in water. The eggs hatched after 5-7 days at 28° C. To microtiter plates containing about 150 μg of compound, 80:20 acetone was added to each well and the solution was mixed to obtain the desired compound concentration. The nematode solution was added to the plate. The plates were then sealed and placed in an incubator at 27° C. and 50% (+/−2%) relative humidity. […] II Activity Against Insects II.1 Cotton Aphid (Aphis Gossypii) • The active compounds were formulated in 50:50 acetone:water and 100 ppm Kinetics surfactant. • Cotton plants at the cotyledon stage (one plant per pot) were infested by placing a heavily infested leaf from the main colony on top of each cotyledon. The aphids were allowed to transfer to the host plant overnight, and the leaf used to transfer the aphids was removed. The cotyledons were dipped in the test solution and allowed to dry. […] II.2 Green Peach Aphid (Myzus Persicae) • The active compounds were formulated in 50:50 acetone:water and 100 ppm Kinetic® surfactant. • Pepper plants in the 2nd leaf-pair stage (variety ‘California Wonder’) were infested with approximately 40 laboratory-reared aphids by placing infested leaf sections on top of the test plants. The leaf sections were removed after 24 hr. The leaves of the intact plants were dipped into gradient solutions of the test compound and allowed to dry. Test plants were maintained under fluorescent light (24 hour photoperiod) at about 25° C. and 20-40% relative humidity. […] II.3 Bean Aphid (Aphis Fabae) • The active compounds were formulated in 50:50 acetone:water and 100 ppm Kinetics surfactant. • Nasturtium plants grown in Metro mix in the 1st leaf-pair stage (variety ‘Mixed Jewle’) were infested with approximately 2-30 laboratory-reared aphids by placing infested cut plants on top of the test plants. The cut plants were removed after 24 hr. […]

Assay [2] deals with Cotton Aphid (Aphis Gossypii). The assay can be described thus: Cotton aphid test on dipped cotton cotyledons. As to conditions: 120 h, after 5 days, read-out: mortality in comparison with untreated controls. As to the method:
(§1) • The soybean bean cyst nematode culture was maintained in a greenhouse and soybean eggs and J2 larvae were obtained for testing by dislodging soybean cysts from the roots with a sieve. The cysts were broken to release the eggs and the eggs were maintained in water. The eggs hatched after 5-7 days at 28° C. To microtiter plates containing about 150 μg of compound, 80:20 acetone was added to each well and the solution was mixed to obtain the desired compound concentration. The nematode solution was added to the plate. The plates were then sealed and placed in an incubator at 27° C. and 50% (+/−2%) relative humidity. […] II Activity Against Insects II.1 Cotton Aphid (Aphis Gossypii) • The active compounds were formulated in 50:50 acetone:water and 100 ppm Kinetics surfactant. • Cotton plants at the cotyledon stage (one plant per pot) were infested by placing a heavily infested leaf from the main colony on top of each cotyledon. The aphids were allowed to transfer to the host plant overnight, and the leaf used to transfer the aphids was removed. The cotyledons were dipped in the test solution and allowed to dry. […]

The subject of assay [3] is Root-Knot Nematode (Meloidogyne incognita). The assay can be described thus: Root-knot nematode microtiter plate mortality test. The following applies: after 72 hours, J2 nematodes, immobility regarded as mortality, read-out: mortality compared to untreated controls. As to the method:
• Test compounds were prepared and formulated into aqueous formulations using acetone. The formulations were tested using root knot nematode (2nd instar) and soybean cyst nematode (2nd instar) as target species. I.1 Test Procedures for Root-Knot Nematode (Meloidogyne incognita): • Tomato plants (var. Bonny Best) were grown in the greenhouse in plastic tubs (4 to 6 plants per tub). The plants and soil (a 50:50 mixture of sand and “New Egypt” sandy loam) were infested with M. incognita J2 (to establish the “in-house” colony, M. incognita J2 were initially acquired from Auburn University). The plants were kept pruned and were used on an “as needed” basis. The tomato plants were kept in the cylinder containing hydroponic solution and aerated until the nematodes were no longer present in the solution (usually about 60 days). The cultures were checked daily by eluting a small volume (approximately 20 ml) from the bottom of a funnel attached to the cylinder into a small crystallizing dish and observed using a binocular dissecting scope. […] These were counted by putting 25 μl of the nematode solution into a well of an unused well of an assay plate. […] After 72 hours, the population mortality was read, whereby immobility of nematodes was regarded as mortality.

The test system of assay [4] is Soybean Cyst Nematode (Heterodera Glycine). The assay can be described thus: Soybean cyst nematode microtiter plate mortality test. As to conditions: after 72 hours, J2 larvae, immobility regarded as mortality, read-out: mortality compared to untreated controls. As to the method: I.2 Test Procedures for Soybean Cyst Nematode (Heterodera Glycine):
as §1

The term mortality denotes the share of the test organisms that died. On to `Cl/C(=N\N=Cc1cc2ccccc2o1)c1cccs1` [Example 1], for which the mortality at 300 ppm in assay [1] was over 75%.
`CS/C(=N\N=Cc1cc2ccccc2o1)c1cccs1` [Example 2]: the mortality at 300 ppm in assay [2] was over 75%.
As for `CO/C(=N\N=Cc1cc2ccccc2o1)c1cccs1` [Example 4], the mortality at 100 ppm in assay [3] is over 95%.
Turning to `C/C(=N\N=Cc1cc2ccccc2o1)c1cccs1` [Example 5], the mortality at 300 ppm in assay [1] was over 75%.
As to `Cl/C(=N\N=CC=Cc1ccccc1)c1cccs1` [Example 11], in assay [4], the mortality at 100 ppm was over 95%.
For the molecule `C/C(=N\N=CC=Cc1ccccc1)c1cccs1` [Example 12], in assay [1], the mortality at 300 ppm is over 75%. The mortality at 100 ppm in assay [3] was over 95%.
